# Assay results from patent US20240315986A1, “PHARMACEUTICAL COMPOSITION FOR TREATMENT OF MULTIPLE SYSTEM ATROPHY” (THE UNIVERSITY OF TOKYO, priority 2021, published 2024).
# Where two headings read alike, the source gives them in different places.
# Key:
# familial MSA patient = details: cited from earlier work
# [1] = cited from earlier work
# [2] = Phase 1 clinical trial: plasma concentration of drug in repeated oral administration for 14 days; format: in vivo, human; details: for Maximum plasma concentration of the MSA-01: 6 hours after repeated oral administration for 14 days (318 hour)
# Description: (Measurement of Plasma Concentration of Drug in Repeated Oral Administration for 14 Days)
# The MSA-01 was subjected to the oral administration to healthy subjects at doses of 900 mg, 1,200 mg, and 1,500 mg repeatedly for 14 days. […] Maximum plasma concentrations of the MSA-01 detected were 10.24, 9.38, and 15.22 μg/mL in 900 mg, 1,200 mg, and 1,500 mg groups, respectively, in measurement after 6 hours from the repeated oral administration for 14 days (a value at 318 hour in FIG. 1). Published baselines of the plasma concentration of the ubiquinol are 0.87 and […] (% Reduced CoQ10: 98.9 and 85%) (Langsjoen, et al. Comparison study of plasma coenzyme Q10 levels in healthy subjects supplemented with ubiquinol versus ubiquinone. Clin Pharmacol Drug Dev. 2014; 3(1):13-17, Onur et al. Determination of the coenzyme Q10 status in a large Caucasian study population. Biofactors 2015; 41(4):211-21), and it is estimated that MSA-01 in the plasma increased about 20-fold from the baselines in the 1500 mg group in the test.
# [3] = test system: multiple system atrophy patients; assay: Phase 2 clinical trial of MSA-01 in multiple system atrophy patients; format: in vivo, human
# Description: For a group of 21 patients with COQ2 mutation and a group of 108 patients without COQ2 mutation, 61 patients were administered with the MSA-01 and 68 patients were administered with the placebo for each group. Among 129 patients in total in the patient groups, 99 patients had the MSA-C and 30 patients had the MSA-P. The 129 patients who were confirmed to be eligible during 4-week observation period were randomly assigned to be administered with the MSA-01 or the placebo once per day after breakfast (doses of the MSA-01 or the placebo ascend every 2 weeks to 300, 600, 900, 1,200, and 1,500 mg/day, FIG. 2), and evaluation items according to main evaluation items were measured at Weeks 12, 24, 36, and 48.
# Changes (LS means) of UMSARS part 2 scores at Weeks 12, 24, 36, and 48 from the baseline (unified multiple-system atrophy rating scale part 2; Wenning G K, Tison F, Seppi K, et al. Development and validation of the Unified Multiple System Atrophy Rating Scale (UMSARS). Mov Disord [Internet] 2004; 19(12):1391-402) were evaluated. […] Results are shown in FIG. 3A (at Weeks 12, 24, 36, and 48) and FIG. 4 (at Week 48).
# Changes (LS mean) of a UMSARS part 1 score (unified multiple-system atrophy rating scale part 1; Wenning G K, Tison F, Seppi K, et al. Development and validation of the Unified Multiple System Atrophy Rating Scale (UMSARS). Mov Disord [Internet] 2004; 19(12):1391-402), the Barthel index (Barthel index: Mahoney F I, Barthel D W. Functional evaluation: The Barthel index. Md State Med J [Internet] 1965; 14:61-5. Available from:http://www.ncbi.nlm.nih.gov/pubmed/14258950) (FIG. 3B), a SARA score (Schmitz-Huebsch T, du Montcel S T, Baliko L, Berciano J, Boesch S, Depondt C, Giunti P, Globas C, Infante J, Kang J S, Kremer B, Mariotti C, Melegh B, Pandolfo M, Rakowicz M, Ribai P, Rola R, Schoels L, Szymanski S, van de Warrenburg B P, Duerr A, Klockgether T, Fancellu R. Scale for the assessment and rating of ataxia:development of a new clinical scale. Neurology. 2006 Jun. 13; 66(11):1717-20. doi: 10.1212/01.wnl.0000219042.60538.92), and a 10-meter walking time (second) at Week 48 from baselines was evaluated (FIG. 4).
# [4] = intravenous administration to a rat; cited from earlier work
# [5] = oral administration to a human; cited from earlier work
# [6] = first cited value (Langsjoen et al. 2014)
# [7] = second cited value (Onur et al. 2015)
# [8] = Week 48, compared to the placebo group
smiles,measurement,setting,value
"COC1=C(OC)C(O)C(C/C=C(\C)CC/C=C(\C)CC/C=C(\C)CC/C=C(\C)CC/C=C(\C)CC/C=C(\C)CC/C=C(\C)CC/C=C(\C)CC/C=C(\C)CCC=C(C)C)=C(C)C1O (stereo not shown) [MSA-01, 2-[(2E,6E,10E,14E,18E,22E,26E,30E,34E)-3,7,11,15,19,23,27,31,35,39-decamethyltetraconta-2,6,10,14,18,22,26,30,34,38-decaenyl]-5,6-dimethoxy-3-methylcyclohexa-2,5-diene-1,4-diol]",clinical evaluation scale,"familial MSA patient; 600 mg 2 weeks, 840 mg 2 weeks, 1,200 mg 2 weeks, once per day from a gastrostomy tube",no statistically significant changes
same,brain oxygen consumption rate,"familial MSA patient; one familial MSA patient, ubiquinol above conventional dose",improved brain oxygen consumption rate
same,% Reduced CoQ10,[1]; [6],98.9%
same,Published baseline of the plasma concentration of the ubiquinol,[1]; [6],0.87 µg/mL
same,% Reduced CoQ10,[1]; [7],85%
same,Published baseline of the plasma concentration of the ubiquinol,[1]; [7],0.66 µg/mL
same,Maximum plasma concentration of the MSA-01,[2]; 900 mg group,10.24 µg/mL
same,Maximum plasma concentration of the MSA-01,"[2]; 1,200 mg group",9.38 µg/mL
same,increase of MSA-01 in the plasma from the baselines,"[2]; 1500 mg group, versus published baselines",about 20 fold
same,Maximum plasma concentration of the MSA-01,"[2]; 1,500 mg group",15.22 µg/mL
same,plasma concentration of the MSA-01 until 24 hours after the administration,"[2]; healthy subjects, oral 900, 1,200 and 1,500 mg, quantification limit printed 1 g/mL",extremely low
same,time of repeated administration to reach steady state of plasma concentration,"[2]; healthy subjects, repeated oral administration 900-1,500 mg",about 7 days
same,Change (LS mean) of 10-meter walking time from baseline,[3]; [8],effects were shown
same,Change (LS mean) of SARA score from baseline,[3]; [8],effects were shown
same,Change (LS mean) of the Barthel index from baseline,[3]; [8],effects were shown
same,"difference of LS mean change of UMSARS part 2 score, MSA-01 group versus placebo group","[3]; Week 48, 95% confidence interval −3.24 to −0.24, P=0.023",−1.74
same,Change (LS mean) of UMSARS part 2 score from the baseline,"[3]; Week 48, MSA-01 ascending to 1,500 mg/day oral once per day, placebo 7.14",5.40
COC1=C(OC)C(=O)C(C/C=C(\C)CC/C=C(\C)CC/C=C(\C)CC/C=C(\C)CC/C=C(\C)CC/C=C(\C)CC/C=C(\C)CC/C=C(\C)CC/C=C(\C)CCC=C(C)C)=C(C)C1=O [ubiquinone],ubiquinol (reduced) present in plasma after ubiquinone administration,[4],≥ 95%
same,ubiquinol (reduced) present in plasma after ubiquinone administration,[5],≥ 95%
